Results from ChEMBL document CHEMBL1134714, “Spirocyclic nonpeptide glycoprotein IIb-IIIa antagonists. Part 1: design of potent and specific 3,9-diazaspiro[5.5]undecanes” (Bioorg Med Chem Lett, 2001).

What was measured:
Homo sapiens = species: Homo sapiens; assay: Inhibition of aggregation of ADP-stimulated human platelets; type: functional
Integrin alpha-V/beta-3 = Integrin alpha-V/beta-3 (Homo sapiens, UniProt P05106+P06756); assay: Inhibitory concentration against alphaV-beta3 integrin; type: protein-complex assay
Chain of Integrin alpha-V/beta-3 (P05106 27-788 limits assumed): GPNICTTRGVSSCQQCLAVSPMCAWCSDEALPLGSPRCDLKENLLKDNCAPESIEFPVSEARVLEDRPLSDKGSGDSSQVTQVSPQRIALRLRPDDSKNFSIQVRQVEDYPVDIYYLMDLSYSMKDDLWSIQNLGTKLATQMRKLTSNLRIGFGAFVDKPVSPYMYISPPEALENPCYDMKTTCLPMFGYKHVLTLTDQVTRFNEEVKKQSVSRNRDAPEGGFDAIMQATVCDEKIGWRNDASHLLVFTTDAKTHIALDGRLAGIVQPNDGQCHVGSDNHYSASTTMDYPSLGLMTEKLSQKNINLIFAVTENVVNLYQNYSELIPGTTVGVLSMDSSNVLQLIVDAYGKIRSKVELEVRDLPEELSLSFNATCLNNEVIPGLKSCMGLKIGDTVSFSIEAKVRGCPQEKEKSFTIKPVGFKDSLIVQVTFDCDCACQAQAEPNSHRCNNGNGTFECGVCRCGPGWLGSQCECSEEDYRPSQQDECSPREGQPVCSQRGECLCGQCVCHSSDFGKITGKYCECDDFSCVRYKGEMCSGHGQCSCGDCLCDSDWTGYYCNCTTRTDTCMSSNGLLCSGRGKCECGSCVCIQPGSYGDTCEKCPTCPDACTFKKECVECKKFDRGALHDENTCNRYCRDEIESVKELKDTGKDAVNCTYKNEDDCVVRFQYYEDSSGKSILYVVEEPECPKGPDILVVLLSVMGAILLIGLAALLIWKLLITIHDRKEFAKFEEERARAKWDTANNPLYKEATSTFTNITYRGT
Chain of Integrin alpha-V/beta-3 (P06756 31-889 limits assumed): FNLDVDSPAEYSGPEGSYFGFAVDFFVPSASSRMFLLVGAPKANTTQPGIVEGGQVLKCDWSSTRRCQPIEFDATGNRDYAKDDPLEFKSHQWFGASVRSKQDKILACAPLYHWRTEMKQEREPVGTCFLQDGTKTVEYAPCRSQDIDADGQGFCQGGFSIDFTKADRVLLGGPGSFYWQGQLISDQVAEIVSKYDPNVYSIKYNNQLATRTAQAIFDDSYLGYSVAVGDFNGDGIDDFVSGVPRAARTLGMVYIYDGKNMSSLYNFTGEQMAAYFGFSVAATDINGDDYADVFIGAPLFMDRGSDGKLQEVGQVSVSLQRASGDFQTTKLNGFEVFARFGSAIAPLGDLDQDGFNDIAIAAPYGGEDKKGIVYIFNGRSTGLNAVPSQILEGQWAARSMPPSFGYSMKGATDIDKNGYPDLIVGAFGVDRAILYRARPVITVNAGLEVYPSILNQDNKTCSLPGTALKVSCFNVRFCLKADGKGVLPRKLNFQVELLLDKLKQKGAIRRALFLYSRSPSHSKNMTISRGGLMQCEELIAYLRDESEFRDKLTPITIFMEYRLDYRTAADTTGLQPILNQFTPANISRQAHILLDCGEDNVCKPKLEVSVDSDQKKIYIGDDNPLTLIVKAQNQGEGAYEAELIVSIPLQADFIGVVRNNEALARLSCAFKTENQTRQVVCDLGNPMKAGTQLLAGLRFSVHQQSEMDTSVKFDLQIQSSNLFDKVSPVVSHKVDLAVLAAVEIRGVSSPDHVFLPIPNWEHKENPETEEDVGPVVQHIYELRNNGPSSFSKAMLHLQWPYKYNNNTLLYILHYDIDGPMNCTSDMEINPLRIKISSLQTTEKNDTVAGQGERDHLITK
Chain of Integrin alpha-V/beta-3 (P06756 891-1048 limits assumed): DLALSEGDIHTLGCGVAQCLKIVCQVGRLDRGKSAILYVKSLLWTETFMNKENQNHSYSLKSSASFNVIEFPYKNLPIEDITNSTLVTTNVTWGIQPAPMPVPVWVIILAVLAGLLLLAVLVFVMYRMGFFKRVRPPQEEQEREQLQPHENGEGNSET

[1] = biological target: Integrin alpha-IIb/beta-3 (Homo sapiens, UniProt P05106+P08514); assay: Inhibition of binding of fibrinogen to purified human GPIIb-IIIa in ELISA; type: protein-complex assay
Chain of Integrin alpha-IIb/beta-3 (P05106 27-788 limits assumed): as the sequence (P05106 27-788 limits assumed) above
Chain of Integrin alpha-IIb/beta-3 (P08514 32-887 limits assumed): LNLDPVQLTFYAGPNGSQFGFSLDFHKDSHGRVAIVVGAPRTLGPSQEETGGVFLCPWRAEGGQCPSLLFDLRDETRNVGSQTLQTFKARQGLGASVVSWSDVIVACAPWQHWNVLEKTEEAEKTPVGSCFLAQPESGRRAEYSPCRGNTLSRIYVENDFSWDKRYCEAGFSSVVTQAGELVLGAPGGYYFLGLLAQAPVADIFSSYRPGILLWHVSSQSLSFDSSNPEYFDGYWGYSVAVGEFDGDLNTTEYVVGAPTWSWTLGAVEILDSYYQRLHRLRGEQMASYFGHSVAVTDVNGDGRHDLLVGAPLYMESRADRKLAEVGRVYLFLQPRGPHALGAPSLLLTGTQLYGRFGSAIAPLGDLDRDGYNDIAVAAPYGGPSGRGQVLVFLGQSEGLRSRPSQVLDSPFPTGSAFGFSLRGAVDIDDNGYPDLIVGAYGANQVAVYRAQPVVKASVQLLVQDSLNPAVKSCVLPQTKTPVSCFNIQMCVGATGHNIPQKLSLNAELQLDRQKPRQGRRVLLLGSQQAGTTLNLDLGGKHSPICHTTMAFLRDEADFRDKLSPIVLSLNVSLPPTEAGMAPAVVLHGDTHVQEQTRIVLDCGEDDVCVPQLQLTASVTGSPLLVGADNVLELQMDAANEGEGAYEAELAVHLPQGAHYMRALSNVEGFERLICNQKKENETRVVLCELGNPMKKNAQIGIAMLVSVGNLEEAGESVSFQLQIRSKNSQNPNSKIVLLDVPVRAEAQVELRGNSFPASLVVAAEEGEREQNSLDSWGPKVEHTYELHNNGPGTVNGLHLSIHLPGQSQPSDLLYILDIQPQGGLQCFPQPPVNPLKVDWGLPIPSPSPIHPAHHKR
Chain of Integrin alpha-IIb/beta-3 (P08514 891-1039 limits assumed): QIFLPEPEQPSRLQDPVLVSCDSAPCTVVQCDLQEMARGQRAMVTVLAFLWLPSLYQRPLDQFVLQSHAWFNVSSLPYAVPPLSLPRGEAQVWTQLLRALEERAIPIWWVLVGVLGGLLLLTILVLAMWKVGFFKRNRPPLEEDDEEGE

[2] = Oral bioavailability of compound in Sprague Dawley rats; type: ADME, organism-based; conditions: rat, in vivo

IC50 (Homo sapiens) [µM]	IC50 (Integrin alpha-V/beta-3) [µM]	IC50 [1] [µM]	bioavailability [2] [%]	SMILES
5.08	> 100			O=C(O)CCCC(=O)N1CCC2(CC1)CCN(c1ccncc1)CC2
10.3	> 100			N=C(N)c1ccc(C(=O)N2CCC3(CCN(C(=O)CCCC(=O)O)CC3)CC2)cc1
4.54	> 100			O=C(O)CCCCC(=O)N1CCC2(CC1)CCN(c1ccncc1)CC2
9.3	> 100	9.7		N=C(N)c1ccc(C(=O)N2CCC3(CCN(C(=O)CC(=O)O)CC3)CC2)cc1
13.8	> 100			N=C(N)c1ccc(C(=O)N2CCC3(CCN(C(=O)CCC(=O)O)CC3)CC2)cc1
1.15	> 100	0.16		N=C(N)c1ccc(N2CCC3(CCN(CCC(=O)O)CC3)CC2)cc1
18.8	> 100	> 100		N=C(N)c1ccc(C(=O)N2CCC3(CCN(C(=O)CCCCC(=O)O)CC3)CC2)cc1

Second part, the compound before the results:

SMILES	IC50 (Homo sapiens) [µM]	IC50 (Integrin alpha-V/beta-3) [µM]	IC50 [1] [µM]	bioavailability [2] [%]
Cc1noc(C)c1S(=O)(=O)N[C@@H](CNC(=O)N1CCC2(CC1)CCN(c1ccncc1)CC2)C(=O)O	0.039	> 100		
Cc1ccc(S(=O)(=O)N[C@@H](CCC(=O)N2CCC3(CC2)CCN(c2ccncc2)CC3)C(=O)O)cc1	0.078	> 100		
O=C(O)COC1CCN(C(=O)N2CCC3(CC2)CCN(c2ccncc2)CC3)CC1	2.65	> 100	0.21	
CCCCS(=O)(=O)N[C@@H](CCC(=O)N1CCC2(CC1)CCN(c1ccncc1)CC2)C(=O)O	0.768	> 100	0.023	
Cc1noc(C)c1S(=O)(=O)N[C@@H](CCC(=O)N1CCC2(CC1)CCN(c1ccncc1)CC2)C(=O)O	0.021	> 100		7.3
CCCCOC(=O)N[C@@H](CCC(=O)N1CCC2(CC1)CCN(c1ccncc1)CC2)C(=O)O	0.722	> 100	0.004	
O=C(O)CCCCCC(=O)N1CCC2(CC1)CCN(c1ccncc1)CC2	4.55	> 100	0.27	
O=C(O)CC(=O)N1CCC(C(=O)N2CCC3(CC2)CCN(c2ccncc2)CC3)CC1	1.17	> 100	0.043	
O=C(O)CCCCCCC(=O)N1CCC2(CC1)CCN(c1ccncc1)CC2	17.8	> 100		
O=C(N[C@@H](CCC(=O)N1CCC2(CC1)CCN(c1ccncc1)CC2)C(=O)O)OCc1ccccc1	4.58	> 100		
